Where “and” joins values, the source holds several entries; their conditions need not be identical. Equal entries are not always repeated. Where two headings read alike, the source gives them in different places. Blank lines part the entries; values can stand above or below the molecule they belong to.
What was measured:
[1] = target: T1, human MC4R (Homo sapiens, UniProt P32245); assay: cAMP assay (LANCE) in T-Rex-293 cells expressing MC4R; type: cell-based; conditions: for EC50: cAMP assay, mean (± SEM) of at least three independent experiments, read-out: EC50 hMC4R cAMP
T1 construct: expressed in transfected cells
T1 sequence (P32245 whole entry): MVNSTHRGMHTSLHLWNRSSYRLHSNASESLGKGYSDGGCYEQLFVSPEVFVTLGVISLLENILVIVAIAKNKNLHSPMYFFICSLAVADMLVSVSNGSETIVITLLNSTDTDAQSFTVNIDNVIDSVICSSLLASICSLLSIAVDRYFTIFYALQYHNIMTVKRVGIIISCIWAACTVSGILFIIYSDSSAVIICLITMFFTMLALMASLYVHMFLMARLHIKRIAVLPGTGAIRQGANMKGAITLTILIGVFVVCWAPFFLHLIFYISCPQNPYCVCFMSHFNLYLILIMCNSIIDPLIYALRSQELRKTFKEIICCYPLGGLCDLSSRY

[2] = target: T1, human MC4R; assay: Melanocortin receptor radioligand binding (SPA, [125I]-NDP-α-MSH displacement), MC4R; conditions: competitive binding, mean (± SEM) of at least three independent experiments, read-out: IC50 hMC4R binding
[3] = target: T2, human MC1R (Homo sapiens, UniProt Q01726); assay: cAMP assay (LANCE) in T-Rex-293 cells expressing MC1R; type: cell-based; conditions: for Emax: T-REx-293, read-out: % Effect hMC1R cAMP; for EC50: cAMP assay, mean (± SEM) of at least three independent experiments, read-out: EC50 hMC1R cAMP
T2 construct: expressed in transfected cells
T2 sequence (Q01726 whole entry): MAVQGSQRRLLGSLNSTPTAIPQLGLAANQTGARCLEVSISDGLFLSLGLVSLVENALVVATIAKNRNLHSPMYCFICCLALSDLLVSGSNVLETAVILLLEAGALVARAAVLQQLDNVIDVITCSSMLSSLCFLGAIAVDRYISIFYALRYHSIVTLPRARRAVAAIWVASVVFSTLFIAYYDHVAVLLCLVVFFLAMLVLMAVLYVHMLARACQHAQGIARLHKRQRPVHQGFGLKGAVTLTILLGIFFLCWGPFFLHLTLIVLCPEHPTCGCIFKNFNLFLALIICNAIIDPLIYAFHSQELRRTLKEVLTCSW

[4] = target: T2, human MC1R; assay: Melanocortin receptor radioligand binding (SPA, [125I]-NDP-α-MSH displacement), MC1R; conditions: competitive binding, mean (± SEM) of at least three independent experiments, read-out: IC50 hMC1R binding
[5] = target: T3, human MC5R (Homo sapiens, UniProt P33032); assay: Melanocortin receptor radioligand binding (SPA, [125I]-NDP-α-MSH displacement), MC5R; conditions: competitive binding, [125I]-NDP-α-MSH; mean (± SEM) of at least three independent experiments; read-out: IC50 hMC5R binding
T3 construct: expressed in transfected cells; host or cells: HEK293-6E suspension cells, transient expression; membranes
T3 sequence (P33032 whole entry): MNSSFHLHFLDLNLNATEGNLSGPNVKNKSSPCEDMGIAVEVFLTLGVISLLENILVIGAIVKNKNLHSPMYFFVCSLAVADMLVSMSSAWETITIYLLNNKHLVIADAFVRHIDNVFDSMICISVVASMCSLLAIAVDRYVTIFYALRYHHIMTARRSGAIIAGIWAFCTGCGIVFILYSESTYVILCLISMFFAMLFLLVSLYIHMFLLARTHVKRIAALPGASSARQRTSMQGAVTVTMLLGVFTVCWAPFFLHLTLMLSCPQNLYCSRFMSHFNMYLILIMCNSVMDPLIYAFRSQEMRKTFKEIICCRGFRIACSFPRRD

[6] = target: T4, human MC3R (Homo sapiens, UniProt P41968); assay: Melanocortin receptor radioligand binding (SPA, [125I]-NDP-α-MSH displacement), MC3R; conditions: competitive binding, mean (± SEM) of at least three independent experiments, read-out: IC50 hMC3R binding
T4 construct: expressed in transfected cells
T4 sequence (P41968 whole entry): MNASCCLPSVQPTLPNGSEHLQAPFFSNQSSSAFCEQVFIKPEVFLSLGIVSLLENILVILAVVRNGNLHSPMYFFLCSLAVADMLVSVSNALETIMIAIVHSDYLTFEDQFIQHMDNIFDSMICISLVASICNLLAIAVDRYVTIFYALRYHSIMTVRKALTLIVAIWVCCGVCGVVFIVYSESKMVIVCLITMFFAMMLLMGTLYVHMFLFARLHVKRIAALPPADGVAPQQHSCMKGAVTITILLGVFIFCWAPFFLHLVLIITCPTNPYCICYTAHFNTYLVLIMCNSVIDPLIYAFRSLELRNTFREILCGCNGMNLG

[7] = target: T4, human MC3R; assay: cAMP assay (LANCE) in T-Rex-293 cells expressing MC3R; type: cell-based; conditions: for EC50: cAMP assay, mean (± SEM) of at least three independent experiments, read-out: EC50 hMC3R cAMP
[8] = resin
[9] = Emax (curve plateau), relative to NDP-α-MSH, NA = No Activity detected, threshold 20% effect
[10] = other bond, imine formation, then N-phenylmaleimide cycloaddition (RP-04), with chain assembly
[11] = other bond, N-phenylmaleimide (RP-04; imine cyclization/1,3-dipolar cycloaddition), 4 steps

Molecule: C[C@@H]1NC(=O)[C@H](CC(N)=O)NC(=O)[C@H](Cc2ccccc2)NC(=O)[C@H](Cc2ccccc2)NC(=O)[C@H](CCCNC(=N)N)NC(=O)[C@H](Cc2ccccc2)N(C)C(=O)[C@@H]2N[C@H](c3ccc(cc3)C(=O)NCCCC[C@@H](C(=O)N[C@@H](Cc3ccc(O)cc3)C(N)=O)NC(=O)[C@H](Cc3ccccc3)NC1=O)[C@@H]1C(=O)N(C)C(=O)[C@@H]12 [B1-major, [ I-FRFFNAFK ]Y]
EC50 [1]: > 100 µM
IC50 [2]: 34 ± 3 µM
Emax [3]: 37%
EC50 [3]: 1.8 ± 1.2 µM
IC50 [4]: 41 ± 2 µM
IC50 [5]: 16 ± 2 µM
IC50 [6]: 32 ± 2 µM
EC50 [7]: > 100 µM

Molecule: C[C@@H]1NC(=O)[C@H](CC(N)=O)NC(=O)[C@@H](Cc2ccccc2)NC(=O)[C@@H](Cc2ccccc2)NC(=O)[C@H](CCCNC(=N)N)NC(=O)[C@H](Cc2ccccc2)N(C)C(=O)[C@@H]2N[C@H](c3ccc(cc3)C(=O)NCCCC[C@@H](C(=O)NCC(N)=O)NC(=O)[C@H](Cc3ccccc3)NC1=O)[C@@H]1C(=O)N(C)C(=O)[C@@H]12 [C4-major, [I-FRffNAFK ]G]
EC50 [1]: > 100 µM
IC50 [2]: 72 ± 4 µM
Emax [3]: 56%
EC50 [3]: 2.2 ± 1 µM
IC50 [4]: 88 ± 1 µM
IC50 [5]: 36 ± 3 µM
IC50 [6]: > 100 µM
EC50 [7]: > 100 µM

Molecule: C[C@@H]1NC(=O)[C@H](CC(N)=O)NC(=O)[C@H](Cc2ccccc2)NC(=O)[C@H](Cc2ccccc2)NC(=O)[C@H](CCCNC(=N)N)NC(=O)[C@H](Cc2ccccc2)N(C)C(=O)[C@H]2N[C@@H](c3ccc(cc3)C(=O)NCCCC[C@@H](C(=O)N[C@@H](Cc3ccc(O)cc3)C(N)=O)NC1=O)[C@H]1C(=O)N(C)C(=O)[C@H]12 [F1-major*, [ I-FRFFNAK ]Y]
EC50 [1]: > 100 µM
IC50 [2]: > 100 µM
Emax [3]: 31%
EC50 [3]: 14 ± 4 µM
IC50 [4]: > 100 µM
IC50 [5]: 49 ± 2 µM
IC50 [6]: > 100 µM
EC50 [7]: > 100 µM

Molecule: CN1C(=O)[C@@H]2N[C@H](c3ccc(cc3)C(=O)NCCCC[C@@H](C(=O)N[C@@H](Cc3ccc(O)cc3)C(N)=O)NC(=O)[C@H](Cc3ccccc3)NC(=O)[C@H](Cc3ccccc3)NC(=O)[C@H](CCCNC(=N)N)NC(=O)[C@@H]1Cc1ccccc1)[C@@H]1C(=O)N(c3ccccc3)C(=O)[C@@H]12 [N1-minor*, [II-FRFFK ]Y]
Emax [3]: 56%

Molecule: CN1C(=O)[C@@H]2N[C@H](c3ccc(cc3)C(=O)NCCCC[C@@H](C(=O)NCC(N)=O)NC(=O)[C@H](Cc3ccccc3)NC(=O)[C@H](Cc3ccccc3)NC(=O)[C@H](CCCNC(=N)N)NC(=O)[C@@H]1Cc1ccccc1)[C@@H]1C(=O)N(c3ccccc3)C(=O)[C@@H]12 [N2-minor*, [II-FRFFK ]G]
Emax [3]: 36%

Molecule: CC(=O)N[C@@H](CCCNC(=N)N)C(=O)N[C@H]1CSSC[C@@H](C(N)=O)NC(=O)[C@H](Cc2c[nH]c3ccccc23)NC(=O)[C@H](CCCNC(=N)N)NC(=O)[C@@H](Cc2ccccc2)NC(=O)[C@H](Cc2c[nH]cn2)NC(=O)[C@@H](C)NC1=O [RM493, reference compound]
% Effect hMC4R cAMP [1, 9]: 100%
Emax [3]: 96%
IC50 [5]: 1.8 ± 0.3 µM
% Effect hMC3R cAMP [7, 9]: 98%

Molecule: [N-Ph-fused-di-pyrrolidine-NMeFRFFK], N3
ring closure, yield after HPLC [8, 10]: 2%

Molecule: [N-Ph-fused-di-pyrrolidine-NMeFRFFK]G, N2
ring closure, yield after HPLC [8, 10]: 2% and 3%

Molecule: [N-Ph-fused-di-pyrrolidine-NMeFRFFK]Y, N1
ring closure, yield after HPLC ([8]; other bond, imine formation, then N-phenylmaleimide cycloaddition (RP-04), 4 steps): 16% and 10%

Molecule: [N-Ph-fused-di-pyrrolidine-NMeFRFFNAK]Y
ring closure, yield after HPLC [8, 11]: 2%

Molecule: [N-Ph-fused-di-pyrrolidine-NMeFRffK]Y, O2
ring closure, yield after HPLC [8, 10]: 2%

Molecule: [N-Ph-fused-di-pyrrolidine-NMeFRffNK]G
ring closure, yield after HPLC ([8]; other bond, Fmoc removal (RP-03), imine cyclization/N-phenylmaleimide 1,3-dipolar cycloaddition (RP-04), 3 steps): 1%

Molecule: [N-Ph-fused-di-pyrrolidine-NMeFRffNK]Y
ring closure, yield after HPLC ([8]; amide bond, 31-membered ring, 3 steps): 2%

Molecule: [N-Ph-fused-di-pyrrolidine-NMeVDINNNK]G
ring closure, yield after HPLC ([8]; other bond, Fmoc removal, intramolecular imine, N-phenylmaleimide 1,3-dipolar cycloaddition, 4 steps): 2% and 4%

Molecule: [N-Ph-fused-di-pyrrolidine-NMeVINNNK]G
ring closure, yield after HPLC [8, 11]: 7%

Molecule: [Ph-pyrrolidinyl-spirooxindole-NMeFRffNAK]G
ring closure, yield after HPLC ([8]; other bond, (E)-3-benzylidene-indolin-2-one (RP-04; imine cyclization/1,3-dipolar cycloaddition), 4 steps): 5%

Molecule: [pyrrolidine-NMeFDINNNK]G
ring closure, yield after HPLC ([8]; other bond, Fmoc removal (RP-03), imine cyclization/1,3-dipolar cycloaddition, dimethyl maleate (RP-04), 4 steps): 6% and 7%

The remaining lines, values ahead:

EC50 [1]: > 100 µM
IC50 [2]: 96 ± 4 µM
Emax [3]: 39%
EC50 [3]: 10 ± 2 µM
IC50 [4]: > 100 µM
IC50 [5]: 31 ± 0.4 µM
IC50 [6]: > 100 µM
EC50 [7]: > 100 µM
Molecule: C[C@@H]1NC(=O)[C@H](CC(N)=O)NC(=O)[C@H](Cc2ccccc2)NC(=O)[C@H](Cc2ccccc2)NC(=O)[C@H](CCCNC(=N)N)NC(=O)[C@H](Cc2ccccc2)N(C)C(=O)[C@H]2N[C@@H](c3ccc(cc3)C(=O)NCCCC[C@@H](C(=O)NCC(N)=O)NC(=O)[C@H](Cc3ccccc3)NC1=O)[C@H]1C(=O)N(C)C(=O)[C@H]12 [B2-minor, [ I-FRFFNAFK ]G]

EC50 [1]: > 10 µM
IC50 [2]: > 10 µM
EC50 [3]: > 10 µM
IC50 [4]: > 10 µM
IC50 [5]: > 10 µM
IC50 [6]: > 10 µM
EC50 [7]: > 10 µM
Molecule: C[C@@H]1NC(=O)[C@H](CC(N)=O)NC(=O)[C@H](Cc2ccccc2)NC(=O)[C@H](Cc2ccccc2)NC(=O)[C@H](CCCNC(=N)N)NC(=O)[C@H](Cc2ccccc2)N(C)C(=O)[C@H]2N[C@@H](c3ccc(cc3)C(=O)NCCCC[C@@H](C(=O)NCC(N)=O)NC(=O)[C@H](Cc3ccccc3)NC1=O)[C@H]1C(=O)N(c3ccccc3)C(=O)[C@H]12 [B3-major*, [ II-FRFFNAFK]G]

% Effect hMC1R cAMP [3, 9]: 97%
Molecule: CCCC[C@H](NC(C)=O)C(=O)N[C@H]1CC(=O)NCCCC[C@@H](C(=O)O)NC(=O)[C@H](Cc2c[nH]c3ccccc23)NC(=O)[C@H](CCCNC(=N)N)NC(=O)[C@@H](Cc2ccccc2)NC(=O)[C@H](Cc2c[nH]cn2)NC1=O [Bremelanotid (BreMT), Bremelanotid, reference compound]

EC50 [1]: > 100 µM
IC50 [2]: 26 ± 2 µM
Emax [3]: 47%
EC50 [3]: 1.8 ± 0.3 µM
IC50 [4]: 23 ± 1 µM
IC50 [5]: 13 ± 1 µM
IC50 [6]: 36 ± 1 µM
EC50 [7]: > 100 µM
Molecule: C[C@@H]1NC(=O)[C@H](CC(N)=O)NC(=O)[C@@H](Cc2ccccc2)NC(=O)[C@@H](Cc2ccccc2)NC(=O)[C@H](CCCNC(=N)N)NC(=O)[C@H](Cc2ccccc2)N(C)C(=O)[C@@H]2N[C@H](c3ccc(cc3)C(=O)NCCCC[C@@H](C(=O)N[C@@H](Cc3ccc(O)cc3)C(N)=O)NC(=O)[C@H](Cc3ccccc3)NC1=O)[C@@H]1C(=O)N(C)C(=O)[C@@H]12 [C1-major, [I-FRffNAFK ]Y]

Emax [3]: 57%
Molecule: C[C@@H]1NC(=O)[C@H](CC(N)=O)NC(=O)[C@@H](Cc2ccccc2)NC(=O)[C@@H](Cc2ccccc2)NC(=O)[C@H](CCCNC(=N)N)NC(=O)[C@H](Cc2ccccc2)N(C)C(=O)[C@@H]2N[C@H](c3ccc(cc3)C(=O)NCCCC[C@@H](C(=O)N[C@@H](Cc3ccc(O)cc3)C(N)=O)NC(=O)[C@H](Cc3ccccc3)NC1=O)[C@]1(C(=O)Nc3ccccc31)[C@H]2c1ccccc1 [C2-major, [X-FRffNAFK ]Y]

Emax [3]: 36%
Molecule: C[C@@H]1NC(=O)[C@H](CC(N)=O)NC(=O)[C@@H](Cc2ccccc2)NC(=O)[C@@H](Cc2ccccc2)NC(=O)[C@H](CCCNC(=N)N)NC(=O)[C@H](Cc2ccccc2)N(C)C(=O)C2NC(c3ccc(cc3)C(=O)NCCCC[C@@H](C(=O)N[C@@H](Cc3ccc(O)cc3)C(N)=O)NC(=O)[C@H](Cc3ccccc3)NC1=O)C1(C(=O)Nc3ccccc31)C2c1ccccc1 (stereo partly shown) [C2-minor, [X-FRffNAFK ]Y]

EC50 [1]: > 100 µM
IC50 [2]: 57 ± 5 µM
Emax [3]: 36%
EC50 [3]: 10 ± 1 µM
IC50 [4]: 65 ± 6 µM
IC50 [5]: 16 ± 1 µM
IC50 [6]: 80 ± 5 µM
EC50 [7]: > 100 µM
Molecule: C[C@@H]1NC(=O)[C@H](CC(N)=O)NC(=O)[C@H](Cc2ccccc2)NC(=O)[C@H](Cc2ccccc2)NC(=O)[C@H](CCCNC(=N)N)NC(=O)[C@H](Cc2ccccc2)N(C)C(=O)[C@@H]2N[C@H](c3ccc(cc3)C(=O)NCCCC[C@@H](C(=O)N[C@@H](Cc3ccc(O)cc3)C(N)=O)NC1=O)[C@@H]1C(=O)N(C)C(=O)[C@@H]12 [F1-minor*, [ I-FRFFNAK ]Y]

Emax [3]: 62%
Molecule: CN1C(=O)[C@@H]2N[C@H](c3ccc(cc3)C(=O)NCCCC[C@@H](C(=O)N[C@@H](Cc3ccc(O)cc3)C(N)=O)NC(=O)[C@@H](Cc3ccccc3)NC(=O)[C@@H](Cc3ccccc3)NC(=O)[C@H](CCCNC(=N)N)NC(=O)[C@@H]1Cc1ccccc1)[C@@H]1C(=O)N(c3ccccc3)C(=O)[C@@H]12 [O2-major, [II-FRffK ]Y]
